Measured values published in patent US20200281897A1, “INDAZOLE DERIVATIVES FOR CANCER TREATMENT” (Servicio Andaluz de Salud, priority 2016, published 2020).

What was measured:
[1] = test system: MM1S; experiment: MTT cell viability assay, myeloma cell line MM1S; format: cell-based, human; conditions: MM1S, MTT, 18 hours, doses 0-50 μM; read-out: IC50, cell viability
Protocol: (§1) In vitro studies were carried out using six different human MM cell lines, U266, RPMI8226, MM1S, MM1R, U266-LR7, and RPMI-LR5. For ex vivo assays, human primary cells from healthy donors and MM patients were used (Table 1). Human MM cell lines U266, RPMI8226, and MM1.S were acquired from ATCC and lines U266-LR7, RPMI-LR5, and MM1.R were kindly provided by Dr. Enrique Ocio (Hospital Universitario de Salamanca, Spain). The primary cells were obtained from bone marrow (BM) aspirates or peripheral blood (PB) samples, and the peripheral blood mononuclear cells (PBMCs) were isolated by Ficoll-Hypaque centrifugation and washed twice in phosphate buffered saline (PBS) containing 1% BSA. Hematopoietic stem cells and B and T lymphocytes were isolated from healthy PB donors by positive immunomagnetic separation using human MACS CD34+, CD19+, and CD3+ microbeads, respectively. MM plasma cells were obtained from the bone marrow (BM) of patients with an infiltration of cells of more than 30% (Table 1). The MM plasma cells were identified using CD138+, and were then distinguished from the other cell populations by flow cytometry using a suitable combination of antibodies: anti-human CD64-FITC, CD34-PE, CD56-APC, CD38-APC-H7, and CD45-Pacific Blue antibodies (BD Biosciences, San Jose, Calif.). All the cell lines were cultured in RPMI-1640 supplemented with 10% fetal bovine serum (FBS) and 1% penicillin/streptomycin, as recommended by the supplier. For human primary cells, the concentration of FBS was up to 20%.
(§2) The MM cell lines and primary cells were exposed to different doses of indazole compounds, and viability was evaluated at 18, 48, and 72 hours. Pretreatments with the ceramide synthesis inhibitor (FB1), pan-caspase (ZVAD-FMK), and CB antagonists (PGN-8, PGN-37, and PGN-70) were performed for 30 minutes, and then the cells were incubated with indazole compound WIN-55 up to 18 hours. Cell viability was determined using the MTT assay Cell Counting Kit-8 (Dojindo, Kumamoto, Japan) according to the manufacturer's instructions.

[2] = test system: granulomonocytes (CD64+) and lymphocytes (CD45+); experiment: Ex vivo viability of normal cell subpopulations of patient bone marrow by flow cytometry; format: cell-based, human
Protocol: In vitro studies were carried out using six different human MM cell lines, U266, RPMI8226, MM1S, MM1R, U266-LR7, and RPMI-LR5. For ex vivo assays, human primary cells from healthy donors and MM patients were used (Table 1). Human MM cell lines U266, RPMI8226, and MM1.S were acquired from ATCC and lines U266-LR7, RPMI-LR5, and MM1.R were kindly provided by Dr. Enrique Ocio (Hospital Universitario de Salamanca, Spain). The primary cells were obtained from bone marrow (BM) aspirates or peripheral blood (PB) samples, and the peripheral blood mononuclear cells (PBMCs) were isolated by Ficoll-Hypaque centrifugation and washed twice in phosphate buffered saline (PBS) containing 1% BSA. […]
(§3) The cell viability of the MM cell lines and primary cells from healthy PB donors was also evaluated by flow cytometry using 7-AAD/Annexin V. Patient bone marrow (BM) cells were analyzed using 7-AAD with a combination of monoclonal antibodies against myeloma-associated antigens (anti-CD56-APC, anti-CD45-Pacific Blue, and anti-CD38-APC-H7 [BD Biosciences]) and antibodies for distinguishing the granulomonocytic population (anti-CD64-FITC) and lymphocytic population (anti-CD45-Pacific Blue). The cells were acquired by means of FACSCanto II flow cytometer (BD Biosciences) and analyzed using Infinicyt™ Software (Cytognos, Spain).

[3] = test system: MM1R; experiment: MTT cell viability assay, myeloma cell line MM1R; format: cell-based, human; conditions: MM1R, MTT, 18 hours, doses 0-50 μM; read-out: IC50, cell viability
Protocol: as §1, §2

[4] = test system: U266; experiment: Mitochondrial transmembrane potential analysis (TMRE); format: cell-based, human; conditions: U266, 50 μM, from 15 minutes
Protocol: Cell lines U266 were exposed to 50 μM of WIN-55 for 15, 30, 45, and 60 minutes. The loss of mitochondrial membrane potential (Aym) was calculated using TRME (tetramethylrhodamine-ethyl-ester-perchlorate) according to the manufacturer's instructions and CCCP (2-[2-(3-chlorophenyl)hydrazinylidene] propanedinitrile) was used as a control to induce the loss of Aym.

[5] = test system: NB-4; experiment: WST-1 cell viability assay, NB-4; format: cell-based, human; conditions: NB-4, 18 hours
Protocol: (§4) U937, NB-4, KG-1, and MOLM-13 (DMSZ, Braunschweig, Germany) were cultured in complete RPMI 1640 medium (with 2 mM of L-glutamine, 100 mg of penicillin, 100 μg/ml of streptomycin, and with 10% FBS), supplemented with 10 mM HEPES, 1×NaPuvuvato, and 1× non-essential amino acids.
(§5) The cell lines and primary cells were cultured in 96-well plates (5×10e5 cells per well) with the addition of the indicated concentrations of WIN 55,212-2 or PGN cannabinoids in DMSO or with the solvent only in triplicate at 18, 48, and 72 hours. Caspase inhibitor Z-VAD (OMe)-FMK or the CB2 receptor antagonist PGN-8, -37, and -70, together with the cannabinoid WIN-55,212-2, were also added. Cell viability was determined by means of the WST-1 assay [2-(4-iodophenyl)-3-(4-nitrophenyl)-5-(2,4-disulfophenyl)-2H-tetrazolium] according to the manufacturer's instructions (Dojindo Molecular Technologies). Optical densities were measured at 450 nm using a Multiskan™ Go Microplate plate reader (Thermo Fisher Scientific, Waltham, Mass., USA).
(§6) Now it will be analyzed whether the exposure to cannabinoids had any effect on the viability of the tumor cells in vitro. […]

[6] = test system: U266; experiment: MTT cell viability assay, myeloma cell line U266; format: cell-based, human; conditions: U266, MTT, 18 hours, doses 0-50 μM; read-out: IC50, cell viability
Protocol: as §1, §2

[7] = test system: U266-LR7; experiment: MTT cell viability assay, myeloma cell line U266-LR7; format: cell-based, human; conditions: U266-LR7, MTT, 18 hours, doses 0-50 μM; read-out: IC50, cell viability
Protocol: as §1, §2

[8] = test system: U937; experiment: WST-1 cell viability assay, U937; format: cell-based, human; conditions: U937, 18 hours
Protocol: as §4, §5, §6

[9] = test system: U266; experiment: Cell viability by flow cytometry (annexin V/7-AAD), U266; format: cell-based, human; conditions: U266, 18 hours
Protocol: as §3

[10] = test system: hematopoietic progenitor populations; experiment: Effect on normal hematopoiesis in healthy BALB/c mice; format: in vivo; conditions: 5 mg/kg/day for 7 and 28 days
Protocol: The effect of the cannabinoid on normal hematopoiesis was also tested by means of the treatment of healthy BALB/c mice with WIN-55,212-2 at a dose of 5 mg/kg/day for 7 and 28 days. The bone marrow and the peripheral blood population were analyzed by means of flow cytometry and blood counts.

[11] = test system: MOLM-13; experiment: WST-1 cell viability assay, MOLM-13; format: cell-based, human; conditions: MOLM-13, 18 hours
Protocol: as §4, §5, §6

CS(=O)(=O)O.Cc1c(C(=O)c2cccc3ccccc23)c2cccc3c2n1[C@H](CN1CCOCC1)CO3 [WIN-55, (R)-(+)-[2,3-dihydro-5-methyl-3-(4-morpholinomethyl)-pyrrolo[1,2,3]-1,4-benzoxazin-6-yl]-1-naphthalenylmethanone mesylate]
IC50 [1]: 13.6 µM | cell viability of normal cell subpopulations from patient bone marrow ([2]; granulomonocytes (CD64+) and lymphocytes (CD45+), 0-50 μM, 18 hours): barely affected | effect on the lymphocyte population (CD45+) ([2]; highest dose tested, 50 μM): induced an antiproliferative effect | IC50 [3]: 12.1 µM | mitochondrial membrane potential [4]: early loss of mitochondrial membrane potential | % viable cells at 50 μM [5]: 49.1% | IC50 [5]: 25.1 µM | IC50 [6]: 17.2 µM | IC50 [7]: 17.2 µM | % viable cells at 50 μM [8]: 17.2% | IC50 [8]: 16 µM | IC50 [9]: 18.5 µM | viability of hematopoietic progenitor populations [10]: do not affect the viability | % viable cells at 50 μM [11]: 56.6% | IC50 [11]: 25.9 µM
